PubChem BioAssay (NCI)
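In this assay, cells in 96-well plates receive the compound at five concentrations for 48 hours. Endpoints are linearly interpolated between the surrounding concentrations. GI50 = concentration required for 50% inhibition of growth. TGI denotes the concentration required for complete inhibition of growth.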

Tests used:
Test in all cases: NCI anticancer screen, dose series, 48 h
M19-MEL melanoma = system: M19-MEL melanoma
DMS 273 small cell lung = system: DMS 273 small cell lung
HOP-18 NSCLC = system: HOP-18 NSCLC
DMS 114 small cell lung = system: DMS 114 small cell lung
KM20L2 colon = system: KM20L2 colon
SNB-78 CNS = system: SNB-78 CNS
LXFL 529 NSCLC = system: LXFL 529 NSCLC
DLD-1 colon = system: DLD-1 colon
RXF-631 renal = system: RXF-631 renal

SMILES | TGI (M19-MEL melanoma) [µM] | TGI (DMS 273 small cell lung) [µM] | TGI (HOP-18 NSCLC) [µM] | TGI (DMS 114 small cell lung) [µM] | TGI (KM20L2 colon) [µM] | TGI (SNB-78 CNS) [µM] | TGI (LXFL 529 NSCLC) [µM] | TGI (DLD-1 colon) [µM] | TGI (RXF-631 renal) [µM] | GI50 (DMS 273 small cell lung) [µM] | GI50 (HOP-18 NSCLC) [µM] | GI50 (KM20L2 colon) [µM] | GI50 (LXFL 529 NSCLC) [µM] | GI50 (DLD-1 colon) [µM] | GI50 (M19-MEL melanoma) [µM] | GI50 (DMS 114 small cell lung) [µM] | GI50 (SNB-78 CNS) [µM] | GI50 (RXF-631 renal) [µM]
COCCCNC(=O)C1C(=O)N(CCCOC)C(=O)/C1=N\N (configuration not stated) | > 100 | > 100 | > 100 | > 100 | > 100 | > 100 | > 100 | > 100 | > 100 |  |  |  |  |  |  |  |  | 
CC(=O)[CH-]C(C)=O.CC(=O)[CH-]C(C)=O.[CH2-]CCC.[CH2-]CCC.[Sn+4] |  | 2.53 | 1.88 | 0.301 | 2.65 |  | 0.185 | 1.58 |  | 1.19 | 0.569 | 1.36 | 0.0493 | 0.475 |  |  |  | 
c1cc(N(CCn2cccn2)CCn2cccn2)cc(N(CCn2cccn2)CCn2cccn2)c1 | > 100 | > 100 |  | > 100 | > 100 | > 100 | > 100 | > 100 | > 100 |  |  |  |  |  |  |  |  | 
CCC[CH2][Sn]1([CH2]CCC)[O]CC(Cc2ccccc2)[O]1 (configuration not stated) | 15.6 | 11 |  | 3.59 | 18.2 | 7.46 | 2.39 |  | 2.94 | 2.81 |  | 5.33 | 1.15 |  | 2.83 | 1.72 | 2.61 | 1.57
COc1ccc2c(c1)N1CCc3cc(OC)c(OC)cc3C1C2 (configuration not stated) | > 100 | > 100 | > 100 | > 100 | > 100 | > 100 | > 100 | > 100 |  |  |  |  |  |  |  |  |  | 
C=C1C(=O)O[C@@H]2C[C@@H](C)[C@@H]3C=CC(=O)[C@@]3(C)[C@@H](OC(=O)CC(=O)O[C@H]3[C@@H]4C(=C)C(=O)O[C@@H]4C[C@@H](C)[C@@H]4C=CC(=O)[C@]43C)[C@H]12 | 0.0376 | 0.122 | 0.365 | 0.108 | 0.237 | 0.101 | 0.0343 | < 0.0215 | 0.455 |  |  |  |  |  |  |  |  | 
CN(C)CC(C)(C)C(=O)/C=C/c1ccc(/C=C/C(=O)C(C)(C)CN(C)C)cc1 | 3.14 | 2.38 |  | 2.76 | 2.35 |  | 2.4 | 1.01 | 4.14 |  |  |  |  |  |  |  |  | 
Cc1[nH]c2ccccc2c1C(=O)CC1(O)C(=O)Nc2ccccc21 (configuration not stated) | > 100 | > 100 |  |  | > 100 | > 100 | > 100 | > 100 | > 100 |  |  |  |  |  |  |  |  | 
O=C(O)CCCCCCC[C@H]1S[C@H]1CCCCCCO | > 100 |  | > 100 | > 100 |  | > 100 |  | > 100 |  |  |  |  |  |  |  |  |  | 
COc1ccc(S(=O)(=O)Nc2ccccc2C(=O)O)cc1 | > 100 | > 100 | > 100 |  | > 100 |  | > 100 | > 100 | > 100 |  |  |  |  |  |  |  |  | 
C#Cc1cccc(N2C(=O)CCC2=O)c1 | 35.3 | 47.4 | 34.3 | 21.8 | 59 | 54.6 | 15.8 | 50.1 | 41.1 |  |  |  |  |  |  |  |  | 
C=C(COC(C)=O)CC(OC(C)=O)c1ccccc1 (configuration not stated) | > 100 | > 100 |  | > 100 | > 100 | > 100 | > 100 | > 100 |  |  |  |  |  |  |  |  |  | 
CC1CCC2(CC1)NN=c1s/c(=C\c3ccc(O)cc3)c(=O)n1N2 (configuration not stated) | > 100 | > 100 | > 100 | > 100 | > 100 | > 100 | > 100 | > 100 |  |  |  |  |  |  |  |  |  | 
COc1ccc(OC)c2c1CC(C(=O)O)(C(=O)O)CC2=O |  |  |  | > 100 | > 100 | > 100 | > 100 |  |  |  |  |  |  |  |  |  |  | 
COc1ccc(OC)c(/C(C)=N/NC(N)=S)c1 | > 100 | > 100 | > 100 | > 100 | > 100 | > 100 | > 100 | > 100 |  |  |  |  |  |  |  |  |  | 
COC(=O)N(C(=O)OC)C(C(=O)O)C(C)C (configuration not stated) | > 100 | > 100 | > 100 | > 100 | > 100 | > 100 | > 100 | > 100 |  |  |  |  |  |  |  |  |  | 
C[N-]c1nnnn1C.[Au+].c1ccc([PH+](c2ccccc2)c2ccccc2)cc1 | 14.9 |  | 5.96 | > 100 | 10.3 | > 69.1 | 2.83 | 5.02 |  |  | 2.35 | 4.05 | 1.37 | 2.05 | 2.9 | 2.57 | 5.28 | 
CC(C)CC(NC(=O)c1cccc(O)c1O)C(=O)NCc1cc(CNC(=O)C(CC(C)C)NC(=O)c2cccc(O)c2O)cc(CNC(=O)C(CC(C)C)NC(=O)c2cccc(O)c2O)c1 (configuration not stated) |  | 41.9 | > 100 | 18.4 | 21 | > 100 | 13.8 | > 100 |  |  |  |  |  |  |  |  |  | 
O=c1nc(/C=C/c2ccccc2Cl)cc2n1CCN2CCO | > 100 |  |  | > 100 |  |  | > 100 | > 100 |  |  |  |  |  |  |  |  |  | 
O=C1c2ccccc2C(Br)(Br)c2ccccc21 | > 31.6 | > 31.6 | > 31.6 | > 31.6 | > 100 | > 100 | > 31.6 | > 31.6 |  |  |  |  |  |  |  |  |  | 
Cc1cc2c(ccc3c(C)cc(=O)oc32)o1 | > 100 | > 100 | > 100 | > 100 | > 100 | > 100 | > 100 | > 100 | > 100 |  |  |  |  |  |  |  |  | 
COc1ccc(Nc2nc3ccc(C(F)(F)F)cc3nc2-c2ccccc2)cc1OC |  | > 100 |  | > 100 |  |  | > 100 | > 100 | > 100 |  |  |  |  |  |  |  |  | 
CCCCCC[N+](C)(C)Cc1ccc(C[N+](C)(C)CCCCCC)cc1 |  | 3.73 | 21.8 |  | 34.4 | 5.15 | 15.4 | 26.5 |  |  |  |  |  |  |  |  |  | 
